For experiment [1], the system named is RAW264.7. Kind of experiment: Antiinflammatory activity in LPS induced mouse RAW264.7 cells assessed as reduction in TNF-alpha production at 100 ug/ml measured after 24 hrs. In kind it is functional. As to conditions: dose 100 µg/ml.
Experiment [2] deals with Streptococcus mutans. Nature of the experiment: Antibacterial activity against Streptococcus mutans ATCC 25175 assessed as reduction in bacterial growth at 1.25 to 100 ug/ml by broth microdilution method relative to control. In kind it is functional. Details: scale not given: the % may be the effect or the level left. As to conditions: dose 1.25-100 µg/ml; at 1.25 to 100 µg/mL.

The subject of experiment [3] is Streptococcus sobrinus. Kind of experiment: Antibacterial activity against Streptococcus sobrinus ATCC 33478 assessed as reduction in bacterial growth at 1.25 to 100 ug/ml by broth microdilution method relative to control. In kind it is functional. Details: scale not given: the % may be the effect or the level left. As to conditions: dose 1.25-100 µg/ml; at 1.25 to 100 µg/mL.

Experiment [4] concerns RAW264.7. Nature of the experiment: Antiinflammatory activity in mouse RAW264.7 cells assessed as inhibition of IL-6 production. Type of experiment: functional, cell-based. Particulars: dose <= 100.0 µg/ml.
Experiment [5] relates to RAW264.7. Nature of the experiment: Antiinflammatory activity in mouse RAW264.7 cells assessed as inhibition of TNF-alpha production. In kind it is functional, cell-based. Particulars: dose <= 100.0 µg/ml.
For experiment [6], the system named is RAW264.7. Nature of the experiment: Antiinflammatory activity in LPS induced mouse RAW264.7 cells assessed as inhibition of IL-6 production at 100 ug/ml measured after 24 hrs. Particulars: dose 100 µg/ml. In kind it is functional.
The subject of experiment [7] is Streptococcus mutans. Kind of experiment: Antibacterial activity against Streptococcus mutans ATCC 25175 assessed as reduction in bacterial growth at 1.25 to 100 ug/ml by broth microdilution method. In kind it is functional, organism-based. Particulars: dose 1.25-100 µg/ml.
Experiment [8] has as its system Streptococcus sobrinus. Nature of the experiment: Antibacterial activity against Streptococcus sobrinus ATCC 33478 assessed as reduction in bacterial growth at 1.25 to 100 ug/ml by broth microdilution method. As to conditions: dose 1.25-100 µg/ml. Type of experiment: functional, organism-based.

The source of these data is ChEMBL document CHEMBL5634168, “The discovery of an anti-inflammatory monoterpenoid, neoroseoside from the Zea mays” (2024).

Each structure is given as a SMILES string. Active and inactive are the calls of the source. No cut-off for these calls is given here.

On to `C[C@H]1O[C@@H](c2c(O[C@@H]3O[C@H](CO)[C@@H](O)[C@H](O)[C@H]3O)cc3oc(-c4ccc(O)c(O)c4)cc(=O)c3c2O)C[C@H](O)[C@H]1O` [FAROBIN A], for which the Activity in the experiment on RAW264.7 [1] is 9606 pg/mL; in the experiment on Streptococcus mutans [2], 28%; with Streptococcus sobrinus [3], 26%; in the experiment on RAW264.7 [4], “Dose-Dependent Effect”; with RAW264.7 [5], “Dose-Dependent Effect”; in the experiment on RAW264.7 [6] it was 1051.8 pg/mL.
As for `C[C@@H]1O[C@@H](O[C@H]2[C@@H](O)[C@H](O)[C@@H](C)O[C@H]2c2c(O)cc3oc(-c4ccc(O)c(O)c4)cc(=O)c3c2O)[C@@H](O)[C@H](O)[C@H]1O`, the Activity is 7473.5 pg/mL in the experiment with RAW264.7 [1]; 24% in the experiment with Streptococcus mutans [2]; 26% with Streptococcus sobrinus [3]; “Dose-Dependent Effect” in the experiment with RAW264.7 [4]; “Dose-Dependent Effect” with RAW264.7 [5]; 766.6 pg/mL with RAW264.7 [6].
On to `C[C@@H](/C=C/[C@@]1(O)C(C(=O)O)=CC(=O)CC1(C)C)O[C@@H]1O[C@H](CO)[C@@H](O)[C@H](O)[C@H]1O`, for which the Activity is 9806.7 pg/mL with RAW264.7 [1], “Dose-Dependent Effect” with RAW264.7 [4], “Dose-Dependent Effect” with RAW264.7 [5] and 1570.7 pg/mL in the experiment with RAW264.7 [6]. Further, the outcome in the experiment on Streptococcus mutans [7] and in the experiment with Streptococcus sobrinus [8] was inactive.
